Read-outs that look alike come from different tables or passages of the source.
Legend:
[1] = Generation of ROS in vitro (DCFH fluorescence, cell-free); format: biochemical; conditions: iron complex 100 µM, H2O2 (10 mM), glutathione (5 mM), pH 7.5, relative to FeSO4
Method: Monitoring generation of ROS in the presence of the prodrugs A-E, Comparative Example and control compounds (Table 1):
2',7'-Dichlorfluorescin diacetate (DCFH-DA, 4.9 mg) was dissolved in DMF (100 µL) and mixed with aqueous NaOH (0.1 M, 900 µL). The resulting mixture was incubated for 30 min at 22°C in the dark to obtain the stock solution of 2',7'-dichlorfluorescin (DCFH, 10 mM). Next, the solution (1 mL) containing DCFH (10 µM), MOPS buffer (100 mM, pH 7.5), EDTA (10 mM), glutathione (5 mM) and H2O2 (10 mM) was prepared. Monitoring of fluorescence (λex= 501 nm, λem= 531 nm) of this solution was started. After 3 min, an iron complex (100 µM: ferrocene prodrugs A-E, Comparative Example, negative or positive controls 1 a, P) was added and the fluorescence monitoring was continued. Efficacy of ROS generation was then determined 17 and 37 min after the addition of the iron complex by using the following formulae: efficacy = (F(prodrug) - F0) / (F(FeSO4) - F0), where F(prodrug) is fluorescence of a mixture containing prodrug and treated as described above, F(FeSO4) is fluorescence of a mixture containing FeSO4; F0 is fluorescence of a mixture containing no iron complex.

HL-60 cells = experiment: Generation of ROS in cells (DCFH-DA, flow cytometry); format: cell-based, Human; conditions: 50 µM, 4 h
Method: Generation of ROS in HL-60 cells in the presence the prodrugs, comparative example C.-E. and controls (Table 3)
The probe of HL-60 cells was taken from the cultivation medium (RPMI 1640 supplemented with 10 % FCS, 1 % L-glutamine and 1% penicillin). The medium was replaced for PBS-buffer to obtain the cell suspension with 10^6 cells per mL. DCFH-DA solution (1 µL, 10 mM in DMSO) was added to the suspension (1 mL) and incubated in the dark chamber filled with CO2 (5 %) at 37 °C for 5 min. Then, the cells were washed with PBS and RPMI 1640 (5 % FCS, 1 % L-glutamine, 1% penicillin) medium and an iron complex (10 µL of stock solutions, solvent: DMF containing 2 % water and 1 % sodium ascorbate, final concentration of the complex - 50 µM) was added. After 4 h of the incubation the fluorescence of live cells (λex = 488 nm, λem = 530 nm) in the suspensions was determined by using the flow cytometer. Efficacy of ROS generation was determined using the following formulae: efficacy = (F(prodrug) - F0) / (F(FeSO4) - F0), where F(prodrug) is mean fluorescence intensity of cells incubated with a prodrug and treated as described above, F(FeSO4) is mean fluorescence intensity of cells incubated with FeSO4; F0 is mean fluorescence intensity of cells, which were not treated with any iron complex.

[2] = TLC retention factor as measure of hydrophobicity; format: physicochemical; conditions: support - SiO2, eluent - hexane / ethyl acetate (3/1, v/v); proportional to hydrophobicity
[3] = Release of iron ions from the prodrugs in the presence of hydrogen peroxide (2,2'-bipyridine absorbance); format: physicochemical; conditions: H2O2 (1 mM), 22°C, 100 min, MOPS buffer pH 7.5; relative to FeSO4 (100 µM)
Method: Monitoring release of iron ions from the prodrugs A-E, Comparative Example and control compounds in the presence of hydrogen peroxide (Table 1):
Solution of a ferrocene complex (10 µL, 10 mM in DMF containing 2% water and 1% sodium ascorbate) was diluted with MOPS buffer (990 µL, 100 mM, pH 7.5). Such probes were incubated with H2O2 (1 mM) at 22°C for 100 min. Then the reaction was quenched by adding sodium dithionite (20 µL, 1 M in water) that converts Fe^3+ into Fe^2+. Finally, 2,2'-bipyridine solution (3 µL, 100 mM in DMF) was added to form dark red [Fe(2,2'-bipyridine)3]^2+ complex (λmax= 519 nm). FeSO4 sulfate (100 µM) was used as a positive control to determine the absorbance intensity when the ferrocene complexes were completely converted by H2O2 to free Fe^2+. […] The data are provided in Table 2 and were determined by using the following formulae: iron release efficacy = (A519nm(prodrug) - A519nm(buffer)) / (A519nm(FeSO4) - A519nm(buffer)), where A519nm(prodrug) is absorbance at 519 nm of a prodrug treated with H2O2 and 2,2'-bipyridine as described above, A519nm(FeSO4) is absorbance at 519 nm of FeSO4 treated in a similar way as a prodrug and A519nm(buffer) is absorbance at 519 nm of the buffer only treated in a similar way as a prodrug.

HL60-cells = experiment: Cell permeability of the prodrugs (boron/curcumin assay); format: cell-based, Human; conditions: 100 µM, 1 h, boron relative to comparative example C.-E.
Method: Assay for determination of cell Permeability of the prodrugs (Table 2) (according to the protocol described in J.Plant Nutr. Soil Sci. 1999,162,15-18) HL60-cells grown in RPMI 1640 medium supplemented with 10 % FCS, 1 % glutamine and 1% penicillin / streptomycin were centrifuged and the medium was replaced with RPMI 1640 medium (5 % FCS, 1 % L-glutamine, 1% penicillin) to obtain suspensions containing 10^6 cells per mL. Solutions of prodrugs (5 µL, solvent: DMF containing 2 % water and 1 % sodium ascorbate) were added to the suspensions (500 µL) and incubated for 1 h. The final concentration of the prodrugs in the suspensions was 100 µM. Then the cells were washed 3 times with PBS buffer (3 x 500 µL), treated with concentrated H2O2 solution (200 µL, 1 M) for 30 min and all volatiles were removed by lyophilization. Dry, lysed cells were washed with water (200 µL) and aqueous solution obtained was acidified with HCl (400 µL, 0.1 M). Then this solution was extracted with ethyl-1,3-hexandiol (100 µL, 10 % in CHCl3, v/v) and a portion of the organic phase obtained (40 µL) was mixed with H2SO4 / CH3CO2H (400 µL, 1/1, v/v). Curcumin solution in methylisobutylketone (500 µL, 2 mg in 1 mL of the solvent) was added and allowed to react for 24 h. The reaction was quenched by addition of water (1 mL). […] The value A(550 nm)-A(780 nm) was proportional to concentration of boron in the mixture. Amount of boron released from comparative example C.-E. was taken as a reference. All other values were determined relative to this reference. These values are compared in Table 2 with TLC retention factors, which are proportional to hydrophobicity of the prodrugs.

[4] = system: Human promyelocytic leukemia cells (HL-60); experiment: Viability of HL-60 cells (propidium iodide, flow cytometry); format: cell-based; conditions: read-out: Toxicity of the complexes: IC50
Method: Determination of viability of HL-60 cells (Table 4)
HL-60 cells grown in RPMI 1640 medium supplemented with 10 % FCS, 1 % L-glutamine and 1% penicillin were centrifuged, the medium was replaced with RPMI 1640 medium (5 % FCS, 1 % L-glutamine, 1% penicillin) to obtain suspensions containing 10^6 cells per mL. Stock solutions of prodrugs of different concentrations (5 µL, solvent: DMF containing 2 % water and 1 % sodium ascorbate) were added to the cellular suspensions (500 µL) and incubated for specific periods of time. Four experiments were conducted for each concentration of the prodrug. At the end of the incubation period propidium iodide (PI, 1 µL, 1.5 mM in water) was added to label leaky cells and in 5 min the suspension of the cells was analyzed by using flow cytometry.

[5] = Formation of ferrocenium ions in the presence of H2O2 (absorbance at 300 nm); format: physicochemical; conditions: 100 µM complex in dimethylformamide, 9.8 mM H2O2 (Figure 1)
Method: Figure 1: Iron complexes (100 µM) were dissolved in dimethylformamide and concentrated H2O2 solution (30 % in water, 1 µL) was added: final H2O2 concentration was 9.8 mM. Light absorbance at 300 nm was monitored as a function of time.
Monitoring formation of ferrocenium ions from the prodrugs A and B, as well as comparative example C.-E
Formation of ferrocenium ions from ferrocenes correlates with the increased light absorption in the region between 250 and 350 nm. In this spectral region […] have intense charge transfer transitions, whereas ferrocenes have only weak transitions (Y.S. Sohn, D.N. Hendrickson, H.B. Grey, J. Am. Chem. Soc., 1971, 93(15), 3603 - 3612).

Fibroplasts = experiment: Viability of fibroplasts (MTT); format: cell-based; conditions: Fibroplasts (normal cells); read-out: Toxicity of the complexes: IC50
Method: Determination of viability of fibroplasts (Table 4)
Cells were grown either in DMEM medium (Dulbecco's Modified Eagle's Medium) supplemented with 10 % FCS, 1 % L-glutamine and 1% streptomycin/ penicillin up to 80-90 % confluence. Then the cells were trypsinated, washed, re-suspended in the same medium and spread in wells of a 96-wells microtiter plate (-25.000 cells per well, per 100 µL) and left standing at 37 °C in the chamber filled with CO2 (5 %) for 5 h. Stock solutions of prodrugs of different concentrations (1 µL, solvent: DMF / water (1/3, v/v) containing 1 % sodium ascorbate) were added to the wells and incubated for specific periods of time. Four experiments were conducted for each concentration of the prodrug.

BE (ovary) = conditions: cited from earlier work
HEY (ovary) = conditions: cited from earlier work
C480 (colon) = conditions: cited from earlier work
A375 (melanoma) = conditions: cited from earlier work
8226 (myeloma) = conditions: cited from earlier work
CIN8/27B (myeloma) = conditions: cited from earlier work
C8161 (melanoma) = conditions: cited from earlier work
MIRW5 (melanoma) = conditions: cited from earlier work
MCF-7 (breast) = conditions: cited from earlier work
8226-Dox 40 (myeloma) = conditions: cited from earlier work
[6] = system: MES-SA human uterine cancer; conditions: ref. [6]; cited from earlier work
[7] = 72 h incubation (value in brackets)

For “4-((N-(4-ethylbenzyl)-N-Ferrocenylaminocarbonyl)oxymethyl)-2-phenylboronic acid pinacol ester [Prodrug D]”, the “Efficacy of ROS generation in vitro” value ([1]; 17 min incubation) was 0.09, the “Efficacy of ROS generation in vitro” value ([1]; 37 min incubation) was 0.24 and the “Efficacy of ROS release in cells” value (HL-60 cells) was 0.03 ± 0.02. The “TLC-retention factor (Rf)” value [2] was 0.51, the “Efficacy of iron release in vitro” value [3] was 0 and the “Relative efficiency of cell loading” value (HL60-cells) was 2.3. It also gave an IC50 ([4]; listed as prodrug D) of 12 to 26 µM and an IC50 [4] of 14 µM.

For “4-((N-(4-methylbenzyl)-N-Ferrocenylaminocarbonyl)oxymethyl)-2-phenylboronic acid pinacol ester [Prodrug C]”, the “Efficacy of ROS generation in vitro” value ([1]; 17 min incubation) was 0.10, the “Efficacy of ROS generation in vitro” value ([1]; 37 min incubation) was 0.42 and the “TLC-retention factor (Rf)” value [2] was 0.50. For the same compound, the “Efficacy of iron release in vitro” value [3] was 0, the “Relative efficiency of cell loading” value (HL60-cells) was 1.5 and the IC50 ([4]; listed as prodrug C) was 12 to 26 µM. For the same compound, the IC50 [4] was 12 ± 1 µM.

In the case of “4-((N-Ethyl-N-Ferrocenylaminocarbonyl)oxymethyl)-2-phenylboronic acid pinacol ester [Prodrug A]”, the “Efficacy of ROS generation in vitro” value ([1]; 17 min incubation) is reported as 0.50, the “Efficacy of ROS release in cells” value (HL-60 cells) is reported as 0.06 ± 0.03 and the “TLC-retention factor (Rf)” value [2] is reported as 0.47. The “Efficacy of iron release in vitro” value [3] was 0.72, the IC50 ([4]; listed as prodrug A) was 12 to 26 µM and the IC50 [4] was 26 ± 3 µM.

With “4-((N-Ferrocenylaminocarbonyl)oxymethyl)-2-methylphenylboronic acid pinacol ester [Prodrug E]” the “Efficacy of ROS generation in vitro” value ([1]; 17 min incubation) was 0.52, the “Efficacy of ROS release in cells” value (HL-60 cells) was 0.04 ± 0.02 and the “TLC-retention factor (Rf)” value [2] was 0.45. The “formation of ferrocenium ions” value [5] was “rather decomposed with formation of iron ions”, the “Efficacy of iron release in vitro” value [3] was 0.74 and the IC50 [4] was 39 ± 4 µM.

In the case of “4-((N-benzyl-N-Ferrocenylaminocarbonyl)oxymethyl)-2-phenylboronic acid pinacol ester [Prodrug B]”, the “Efficacy of ROS generation in vitro” value ([1]; 17 min incubation) is reported as 0.24, the “Efficacy of ROS generation in vitro” value ([1]; 37 min incubation) is reported as 0.53 and the “Efficacy of ROS release in cells” value (HL-60 cells) is reported as 0.09 ± 0.02. The IC50 (Fibroplasts) was greater than 50 µM, the “TLC-retention factor (Rf)” value [2] was 0.46 and the “Efficacy of iron release in vitro” value [3] was 0.09. The “Relative efficiency of cell loading” value (HL60-cells) was 1.8, the IC50 ([4]; listed as prodrug B) was 12 to 26 µM and the IC50 [4] was 12 ± 2 µM.

For `N=C1NC(=O)N2CC12` (stereo not drawn) [Imexon (Amplimexon), Imexon], the IC50 (BE (ovary); 24 h incubation) is listed as 450 µM, the IC50 (BE (ovary); [7]) is listed as 270 µM and the IC50 (HEY (ovary); 24 h incubation) is listed as 180 µM. For the same compound, the IC50 (HEY (ovary); [7]) was 270 µM, the IC50 (C480 (colon); 24 h incubation) was 270 µM and the IC50 (C480 (colon); [7]) was 135 µM. For the same compound, the IC50 (A375 (melanoma); 24 h incubation) was 54 µM, the IC50 (A375 (melanoma); [7]) was 45 µM and the IC50 (8226 (myeloma); 24 h incubation) was 40 µM. For the same compound, the IC50 (8226 (myeloma); [7]) was 41 µM, the IC50 (CIN8/27B (myeloma); 24 h incubation) was 270 µM and the IC50 (CIN8/27B (myeloma); [7]) was 90 µM. For the same compound, the IC50 (C8161 (melanoma); 24 h incubation) was 72 µM, the IC50 (C8161 (melanoma); [7]) was 135 µM and the IC50 (MIRW5 (melanoma); 24 h incubation) was 315 µM. For the same compound, the IC50 (MIRW5 (melanoma); [7]) was 63 µM, the IC50 (MCF-7 (breast); 24 h incubation) was 270 µM and the IC50 (MCF-7 (breast); [7]) was 450 µM. The IC50 (8226-Dox 40 (myeloma); 24 h incubation) was 40 µM and the IC50 (8226-Dox 40 (myeloma); [7]) was 36 µM.

For `CC(=O)[O-].CC(=O)[O-].CCc1c(CC)c2cc3nc(cnc4cc(OCCOCCOCCOC)c(OCCOCCOCCOC)cc4ncc4nc(cc1[n-]2)C(CCCO)=C4C)C(C)=C3CCCO.[Gd+3]` [Motexafin gadolinium], the IC50 [6] is given as roughly 12 µM.
